Measurements from patent US4261883A (priority 1979, dated 1981).
Like-named read-outs stand apart in the source and are kept apart here.

What was measured:
guinea pig ileum = guinea pig ileum test (inhibition of voltage induced contractions); format: cell-based; conditions: read-out: I.D.50 in the guinea pig ileum test
[1] = system: opioid receptors in caudate nuclei homogenate S4e; assay: affinity labeling of opiate receptor sites by irradiation of azido compounds, caudate nuclei homogenate S4e; format: binding, bovine; conditions: normorphine hydrochloride added before the azide and irradiation

Compound | IC50 (guinea pig ileum; Cavia porcellus) | effect on the deactivation of the opioid receptors by the azide compounds [1] | IC50 (guinea pig ileum)
Oc1ccc2c3c1O[C@H]1[C@@H](O)C=C[C@H]4[C@@H](C2)NCC[C@@]341 [normorphine] | 120 nM | inhibit the deactivation of the opioid receptors | –
(D-ala^ 2)met-enkephalinamide | – | – | 12 nM
